Among the test systems are SK-MEL-28; HL-60; SF-539; HCT-15; IGROV-1; EKVX; OVCAR-5; MOLT-4; SK-MEL-2; KM12; LOX IMVI; Malme-3M; SN12C; U-251; NCI-H460; RPMI-8226; OVCAR-8; A498; NCI-H522.
Assay in all cases: growth of human tumour cells (NCI), 48 h

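Compound exposure: 48 hours, 5 concentrations, 96-well plates. GI50 = concentration required for 50% inhibition of growth.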 The source made the active and inactive calls. Cut-off read from the data, not from the text of the source: active = GI50 up to about 1.1 µM and inactive = higher.

The source of these data is ChEMBL document CHEMBL1201862, “PubChem BioAssay data set” (2004).

In the case of `CCN1C(=O)C(=Cc2ccc(-c3ccccc3)cc2)C(=O)N(CC)C1=S`, the GI50 with SK-MEL-28 was > 100 µM (inactive); in the assay with HL-60, 35.5 µM (inactive); in the assay with SF-539, > 100 µM (inactive); with HCT-15 it was above 100 µM; in the assay with IGROV-1, > 100 µM (inactive); with EKVX, > 100 µM (inactive). For the same compound, the GI50 in the assay on OVCAR-5 is > 100 µM (inactive); in the assay on MOLT-4 it was 30.3 µM (inactive); in the assay on SK-MEL-2, > 100 µM (inactive); with KM12, > 100 µM (inactive); in the assay on LOX IMVI, > 100 µM (inactive); in the assay on Malme-3M, > 100 µM (inactive). For the same compound, the GI50 with SN12C was > 100 µM (inactive); with U-251, 75.2 µM (inactive); in the assay on NCI-H460 it was > 100 µM (inactive); in the assay with RPMI-8226 it was > 100 µM (inactive); in the assay with OVCAR-8 it was > 100 µM (inactive).

Consider `CCOC(=O)/C=C1/Oc2ccccc2C1(C)O` (stereo unspecified), for which the GI50 was > 100 µM (inactive) in the assay on SK-MEL-28; > 100 µM (inactive) with HL-60; above 100 µM with HCT-15; > 100 µM (inactive) with IGROV-1; > 100 µM (inactive) in the assay on EKVX; > 100 µM (inactive) with OVCAR-5. In addition, the GI50 with MOLT-4, in the assay on SK-MEL-2, in the assay on KM12, with LOX IMVI, with A498 and with Malme-3M was > 100 µM (inactive) each time. Moreover, the GI50 with SN12C was > 100 µM (inactive); in the assay with U-251, > 100 µM (inactive); in the assay on NCI-H460, > 100 µM (inactive); in the assay on RPMI-8226 it was 84.5 µM (inactive); in the assay on NCI-H522 it was > 100 µM (inactive); with OVCAR-8, > 100 µM (inactive).

For `N#CC(C#N)=C1C(=O)NC(N)=C1C#N`, the GI50 in the assay on SK-MEL-28 was > 100 µM (inactive); with HL-60, > 100 µM (inactive); in the assay with HCT-15, above 100 µM; with IGROV-1, > 100 µM (inactive); in the assay with EKVX it was > 100 µM (inactive); in the assay on OVCAR-5, > 100 µM (inactive). In addition, the GI50 with MOLT-4, in the assay on SK-MEL-2, in the assay with KM12, in the assay with LOX IMVI, with A498 and in the assay on Malme-3M was > 100 µM (inactive) each time. For the same compound, the GI50 in the assay on SN12C, with U-251, in the assay on NCI-H460, with RPMI-8226, in the assay with NCI-H522 and with OVCAR-8 was > 100 µM (inactive) in each case.

Turning to `COc1cc2c(cc1OC)C(=O)/C(=C/c1cc(C)cc(C)c1)C2`, the GI50 with SK-MEL-28 is 40.7 µM (inactive); with HL-60 it was < 0.0244 µM (active); in the assay on SF-539, 0.0871 µM (active); in the assay with HCT-15 it was 0.0296 µM; with IGROV-1, 0.0908 µM (active); with EKVX, 1.29 µM (inactive). Moreover, the GI50 in the assay with OVCAR-5 was 1.09 µM (active); with MOLT-4 it was 0.504 µM (active); in the assay with SK-MEL-2 it was 0.184 µM (active); with KM12, < 0.0203 µM (active); with LOX IMVI, 0.0807 µM (active); with A498, 0.131 µM (active). Also, the GI50 in the assay on SN12C was 0.318 µM (active); in the assay with U-251, 0.122 µM (active); with NCI-H460 it was 0.06 µM (active); in the assay with RPMI-8226 it was 0.129 µM (active); in the assay on NCI-H522, 0.0451 µM (active); in the assay on OVCAR-8, 0.175 µM (active).
